Data on 1 compound can be found in publication PMC4640066 (Nature Communications, 2015).

The test system of experiment [1] is γ-tubulin-dependent, RanQ69L-stimulated aster formation. Kind of experiment: RanQ69L-stimulated aster formation in M-phase Xenopus egg extracts. In kind it is biochemical. Here is the method: (§1) Cytostatic factor (CSF)-arrested M phase Xenopus egg extracts (CSF extracts) were prepared. Briefly, unfertilized eggs were crushed by 10,700g centrifugation for 20 min. M phase extracts were mixed with 0.5 μM Cy3-labelled α/β-tubulin and various concentrations of compounds. After incubation for 30 min on ice, 15 μM RanQ69L, 200 sperm nuclei per μl or 5% DMSO were added and incubated for 30 min on ice. After incubation for 20 min at 20 °C (for the samples with sperm nuclei, the incubation time was 30 min), 1.5 μl sample was fixed with 1.5 μl fix solution (0.3 volume of 37% formaldehyde, 0.6 volume of 80% glycerol and 0.1 vol of 10 × MMR solution (50 mM HEPES, pH 7.8, 1 M NaCl, 20 mM KCl, 10 mM MgCl2, 20 mM CaCl2 and 1 mM EDTA)), followed by the squash fix.
(§2) Images were acquired using a microscope (Axiovert 200 M; Carl Zeiss Inc.) equipped with a plan-Apochromat × 63 NA 1.3 oil objective lens (Carl Zeiss Inc.), a Cy3 emission filter and a Cascade:1 K (Photometrics Inc.) camera, and the AxioVision software (Carl Zeiss Inc.). The aster size and fluorescence intensity were quantified using a macro written in MATLAB[41].

The subject of experiment [2] is DMSO-stimulated, γ-tubulin-independent aster formation. Kind of experiment: DMSO-stimulated aster formation in M-phase Xenopus egg extracts. In kind it is biochemical. The following applies: M-phase-arrested Xenopus egg extracts, 5% DMSO, 20 min at 20 °C. Here is the method:
as §1, §2

The subject of experiment [3] is HeLa cells. Kind of experiment: Spindle length of MG132-arrested metaphase cells. In kind it is cell-based, human. Particulars: 30 μM, 2 h in the presence of MG132, HeLa. Here is the method:
Exponentially growing HeLa cells were treated with 30 μM of gatastatin for 9 h. Cells were fixed with cold MeOH (−20 °C). Immunostaining was performed as described above using anti-α-tubulin (1:250 dilution, Santa Cruz, Cat# sc-32293) and anti-pericentrin (1:250 dilution, Abcam, Cat# ab4448) antibodies. After staining with Alexa^488-conjugated anti-mouse IgG (1:2,000 dilution, Invitrogen, Cat#A11001) and Alexa^568-conjugated anti-rabbit IgG (1:2,000 dilution, Invitrogen, Cat#A11011), cells were washed four times with PBS and mounted with PBS containing 0.1 μg ml^−1 DAPI. Spindle structure was observed under a Leica LAS AF 6000 fluorescence microscope (Leica Microsystems). Images of 41 sections at 0.251-μm intervals were collected. The position of the two pericentrin signals of mitotic cells was analysed using the ImageJ software, and then their distance was calculated.
For analysis of the length of the bipolar spindle in MG132-treated cells, HeLa cells were arrested at prometaphase with 10 μM of STLC for 15 h, followed by STLC removal by washing the cells with the medium three times to remove STLC. […]
Immunostaining was performed as described above using anti-α-tubulin (1:250 dilution, Santa Cruz, Cat# sc-32293) and anti-pericentrin (1:250 dilution, Abcam, Cat# ab4448) antibodies. Spindle structure was observed under a Leica LAS AF 6000 fluorescence microscope (Leica Microsystems). […]

In experiment [4] the test system is HeLa cells. Kind of experiment: γ-Tubulin localization on centrosomes. In kind it is cell-based, human. Particulars: interphase and mitotic HeLa cells, 6 h. Here is the method:
Supplementary Figure 8. Impact of gatastatin on γ-tubulin localization in HeLa cells (a-d) γ-Tubulin localization on centrosome in gatastatin treated HeLa cells. (a) Gatatstatin-treated interphase cells (for 6 h) were analyzed. Red, green and blue in the merged image represent pericentrin, γ-tubulin and DNA, respectively. Scale bar, 5 µm. (b) The γ-tubulin signal around pericentrin in (a) was calculated using ImageJ software from 250 (control) and 166 (gatastatin) centrosomes. Error bars represent S.D. Two-tailed, un-paired Student’s t-test was used to obtain P values. (c) Gatatstatin-treated mitotic cells (for 6 h) were analyzed. Red, green and blue in the merged image represent pericentrin, γ-tubulin and DNA, respectively.
Scale bar, 5 µm. (d) The γ-tubulin signal on pericentrin in (c) was calculated using ImageJ software from 59 (control) and 98 (gatastatin) centrosomes. Error bars represent S.D. Two-tailed, un-paired Student’s t-test was used to obtain P values. γ-Tubulin and pericentrin antibodies were purchased from Sigma (GTU-88, Cat# T6557) and Abcam (Cat# ab4448), respectively.
(1 picture or pasted object on this page, not shown here)

The IC50 is the concentration that gives 50% inhibition.

Some results are limits rather than exact numbers.

Regarding `COc1cc2c(=O)c(-c3cc(OC)c4c(c3OC)OCO4)coc2cc1OCc1ccccc1` [Gatastatin, O^7-demethylbenzyl AG1], the IC50 in experiment [1] (M-phase-arrested Xenopus egg extracts, 15 μM RanQ69L, 20 min at 20 °C) was 9.7 µM; in experiment [2], > 100 µM. For the same compound, in experiment [1] (Xenopus egg extracts), the “Effect on number of RanQ69L-dependent asters” value is recorded as “without changing the number of asters”. Further, in the experiment with HeLa cells [3], the “Reduction of the length of the metaphase spindle compared with the control” value amounted to 22%. In addition, the “γ-Tubulin localization to centrosomes” value in the experiment with HeLa cells [4] is “not affected”.
